Read-outs that look alike come from different tables or passages of the source. Starred links: 1 amine or outer side, 2 acyl side, 3 side chain; linkers in the order of their positions; H or OH if unused. Residues, ends and D or L forms follow the SMILES beside them. *: point of attachment. pNA = O=[N+]([O-])c1ccc(N*)cc1; Suc = O=C(CCC(=O)[*:2])[*:1]; MeOSuc = COC(=O)CCC(=O)*
Tests used:
clipsin [1] = molecular target: T1, clipsin (Rattus norvegicus, UniProt P09650); assay: Enzymography: clipsin activity in 125I-gelatin-containing polyacrylamide gels; type: biochemical; set-up: Mr 25,000 band in gelatin enzymography; details: for Inhibition of clipsin by peptide boronic acids (in words): 10 μM final concentrations
T1 sequence (P09650 21-260): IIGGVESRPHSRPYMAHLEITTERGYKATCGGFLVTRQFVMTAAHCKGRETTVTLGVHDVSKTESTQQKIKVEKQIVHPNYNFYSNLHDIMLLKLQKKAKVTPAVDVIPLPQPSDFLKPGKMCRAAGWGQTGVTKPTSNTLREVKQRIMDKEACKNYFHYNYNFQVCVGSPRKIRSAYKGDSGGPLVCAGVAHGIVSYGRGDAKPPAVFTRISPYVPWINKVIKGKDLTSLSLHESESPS

clipsin [2] = molecular target: T1, clipsin; assay: In vitro chromogenic substrate assay: inhibition of Suc-Ala-Ala-Pro-Phe-p-nitroanilide hydrolysis by Mg2+ extract; type: biochemical; set-up: Forebrains from 5-day-old rats were stripped of meninges and homogenized; from tissue; host or cells: forebrain of 5-day-old rats, membrane-associated, 1M MgCl2 extract (partially enriched); details: for remaining activity at 10 µM: read-out: Relative Clipsin Activity (ΔOD as a percentage of the control value)
[3] = molecular target: T2, human leukocyte cathepsin G (Homo sapiens, UniProt P08311); assay: Hydrolysis kinetics of tetrapeptide p-nitroanilide substrates by cathepsin G; type: biochemical; details: pH 7.5, 50° C.; for Km: 10% dimethyl sulfoxide; for kcat: α-1-AChy-titrated enzyme concentration
T2 sequence (P08311 21-244): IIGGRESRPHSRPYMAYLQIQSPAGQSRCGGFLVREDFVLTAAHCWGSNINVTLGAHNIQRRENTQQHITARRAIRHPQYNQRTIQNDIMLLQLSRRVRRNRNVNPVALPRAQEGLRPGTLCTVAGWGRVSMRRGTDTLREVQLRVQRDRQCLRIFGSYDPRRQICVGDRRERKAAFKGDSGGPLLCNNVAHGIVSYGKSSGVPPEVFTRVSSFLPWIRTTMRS
Text: (§1) Correlation coefficients were greater than 0.99.

bovine chymotrypsin [4] = molecular target: T3, bovine chymotrypsin (Bos taurus, UniProt P00766); assay: Hydrolysis kinetics of tetrapeptide p-nitroanilide substrates by chymotrypsin; type: biochemical; details: ratio chymotrypsin/clipsin for the same substrate
T3 construct: mature chains cut from chymotrypsinogen A
Text: as §1

[5] = system: T4, COC(=O)CCC(=O)N[C@@H](C)C(=O)N[C@@H](C)C(=O)N1CCC[C@H]1C(=O)N[C@@H](CCSC)C(=O)Nc1ccc([N+](=O)[O-])cc1; assay: as above; type: biochemical, bovine; details: other: chymotrypsin, pH 7.5, 50° C., 10% dimethyl sulfoxide
T4 construct: mature chains cut from chymotrypsinogen A
Text: as §1

[6] = system: T5, C[C@H](NC(=O)CCC(=O)O)C(=O)N[C@@H](C)C(=O)N1CCC[C@H]1C(=O)N[C@@H](Cc1ccccc1)C(=O)Nc1ccc([N+](=O)[O-])cc1; assay: as above; type: biochemical, bovine; details: other: chymotrypsin, pH 7.5, 50° C., 10% dimethyl sulfoxide
T5 construct: mature chains cut from chymotrypsinogen A
Text: as §1

[7] = system: major Coomassie Blue-detectable proteins from rat cortical membranes; assay: Breakdown of rat cortical membrane proteins by Mg2+ extract, Coomassie Blue-stained gels; type: biochemical; details: inhibitor included in the incubation
Experimental: (§2) Mg^2+ extract at 60% (about 4.2 nM clipsin final) was incubated with a crude membrane fraction from adult rat cortex (2.8 mg/mL protein final; Siman et al., (1989) J. Neurosci. 9, 1579-1590). Proteolysis reactions were performed at 37° C. for 1 h before quenching the reactions with sodium dodecyl sulfate-containing electrophoresis sample buffer and heating the samples to 90° C. for 5 min. Overall breakdown of proteins were determined by Coomassie Blue staining of gels, whereas β-APP degradation was assessed by Western blotting of identical gels. β-APP was visualized as 110-130-kDa bands using antiserum 385 as described previously (Siman et al., (1989) Neuron 3, 275-285). β-APP-immunostained polypeptides on Western blots and the corresponding major Coomassie Blue-stained protein bands on sodium dodecyl sulfate-containing polyacrylamide gels were quantified by scanning laser densitometry.
We began looking for potential endogenous substrates of clipsin by incubating rat cortical membranes with Mg^2+ extract and measuring loss of the major protein bands following separation of the incubated samples by polyacrylamide gel electrophoresis. […] No other bands varied more than 25%, and no protease activity endogenous to cortical membranes could be detected when comparing 37° C. incubated membranes with parallel samples kept on ice.

β-APP = β-APP degradation in rat cortical membranes by Mg2+ extract, Western blot with antiserum 385; type: biochemical; details: inhibitor included in the incubation
Experimental: as §2

bovine chymotrypsin [8] = molecular target: T3, bovine chymotrypsin; details: cited from earlier work
human cathepsin G = details: cited from earlier work
clipsin [9] = molecular target: T1, clipsin; assay: Association rate constant for α-1-AChy binding to clipsin, second-order conditions; set-up: Mr 25,000 band in gelatin enzymography; details: equimolar clipsin and α-1-AChy
Experimental: The association rate constant for α-1-AChy binding to clipsin was determined under second-order conditions as described previously for α-1-AChy binding to other chymotrypsin-like proteases (Beatty et al., (1980) J. Biol. Chem. 255, 3931-3934). Using the titrated concentration of clipsin, an equimolar concentration of α-1-AChy was preincubated with Mg^2+ extract for various periods of time before addition of 2 mM substrate which stopped the reaction and was used to measure residual enzyme activity. The half-life time of reaction (t1/2) was calculated from a plot of .nu.^-1 versus t, and in turn used to calculate the association rate constant ^k assoc through the following: kassoc =1/t1/2 [Eγ], where [Eγ] stands for the total enzyme concentration (Beatty et al., (1980) J. Biol. Chem. 255, 3931-3934).
Using the titrated value for clipsin concentration in the Mg^2+ extract, we combined equimolar concentrations of clipsin and α-1-AChy to determine the association rate constant between these two proteins, as described previously (Equation 4 in Beatty et al., (1980) J. Biol. Chem. 255, 3931-3934). The ^k assoc was determined to be 2.9×10^6 M^-1 s^-1, a value falling between those determined previously for chymotrypsin and cathepsin G (Beatty et al., (1980) J. Biol. Chem. 255, 3931-3934).

clipsin [10] = molecular target: T1, clipsin; assay: Titration of clipsin activity in Mg2+ extract with α-1-AChy in vitro; type: biochemical; set-up: Mr 25,000 band in gelatin enzymography; details: 20% Mg2+ extract
[11] = inhibitor 10 μM, 20% Mg2+ extract (1.4 nM clipsin), 2 mM Suc-Ala-Ala-Pro-Phe-p-nitroanilide, 1 h, 37° C., average of three

With `COC(=O)CCC(=O)N[C@@H](C)C(=O)N[C@@H](C)C(=O)N1CCC[C@H]1C(=O)N[C@@H](C)B(O)O` [Sample 3, MeO-Suc-Ala-Ala-Pro-boro-Ala-OH] the “Inhibition of clipsin by peptide boronic acids (in words)” value (clipsin [1]; enzymography) was “lack of inhibition” and the remaining activity at 10 µM (clipsin [2]; [11]) was 97%.

With `O=S(=O)(F)Cc1ccccc1` [phenylmethylsulfonyl fluoride] the “Inhibition of clipsin activity by class-specific protease inhibitors (in words)” value (clipsin [1]) was “inhibited clipsin activity”.

With `CCN1C(=O)C=CC1=O` [N-ethylmaleimide] the “Inhibition of clipsin activity by class-specific protease inhibitors (in words)” value (clipsin [1]) was “not inhibited”.

With `O=C(O)CI` [iodoacetic acid] the “Inhibition of clipsin activity by class-specific protease inhibitors (in words)” value (clipsin [1]) was “not inhibited”.

For `C[C@H](NC(=O)CCC(=O)O)C(=O)N[C@@H](C)C(=O)N1CCC[C@H]1C(=O)N[C@@H](Cc1ccccc1)C(=O)Nc1ccc([N+](=O)[O-])cc1` [R--Phe-p-nitroanilide, Suc-Ala-Ala-Pro-Phe-p-nitroanilide] (Suc-AAPF-pNA), the “kcat /Km” value [3] was 4,800 M^-1 S^-1, the Km [3] was 3300 µM and the kcat [3] was 16 s⁻¹. For the same molecule, the “kcat /Km of chymotrypsin relative to clipsin” value (bovine chymotrypsin [4]) was 16 fold.

For `COC(=O)CCC(=O)N[C@@H](C)C(=O)N[C@@H](C)C(=O)N1CCC[C@H]1C(=O)N[C@H](B(O)O)C(C)C` [Sample 4, MeO-Suc-Ala-Ala-Pro-boro-Val-OH], the “Inhibition of clipsin by peptide boronic acids (in words)” value (clipsin [1]; enzymography) was “lack of inhibition” and the remaining activity at 10 µM (clipsin [2]; [11]) was 94%.

For Bz-Pro-Phe-boro-Arg-OH [Sample 5], the “Inhibition of clipsin by peptide boronic acids (in words)” value (clipsin [1]; enzymography) was “only marginally” and the “Relative Clipsin Activity (ΔOD as a percentage of the control value)” value (clipsin [2]; [11]) was 84%.

For bovine chymotrypsin (Bos taurus), the Km [5] was 1800 µM, the kcat [5] was 80 s⁻¹ and the kcat/Km [5] was 44,000 M^-1 S^-1. The Km [6] was 130 µM, the kcat [6] was 120 s⁻¹ and the kcat/Km [6] was 910,000 M^-1 S^-1.

For `COC(=O)CCC(=O)N[C@@H](C)C(=O)N[C@@H](C)C(=O)N1CCC[C@H]1C(=O)N[C@@H](Cc1ccccc1)B(O)O` [Sample 2, MeO-Suc-Ala-Ala-Pro-boro-Phe-OH], the “Blocking of the clipsin-induced decrease of the protein doublet (in words)” value [7] was “could be blocked”, the “Blocking of the clipsin-induced loss of β-APP immunoreactivity (in words)” value (β-APP) was “specifically blocked” and the “Inhibition of clipsin by peptide boronic acids (in words)” value (clipsin [1]; enzymography) was “preferentially inhibited”. It also gave a remaining activity at 10 µM (clipsin [2]; [11]) of 8%.

In the case of `COC(=O)CCC(=O)N[C@@H](C)C(=O)N[C@@H](C)C(=O)N1CCC[C@H]1C(=O)N[C@@H](CCSC)C(=O)Nc1ccc([N+](=O)[O-])cc1` [R'--Met-p-nitroanilide] (MeOSuc-AAPM-pNA), the “kcat /Km” value [3] is reported as 4,300 M^-1 S^-1, the Km [3] is reported as 540 µM and the kcat [3] is reported as 2.3 s⁻¹. The “kcat /Km of chymotrypsin relative to clipsin” value (bovine chymotrypsin [4]) was 8.5 fold.

With `c1cnc2c(c1)ccc1cccnc12` [1,10-0-phenanthroline] the “Inhibition of clipsin activity by class-specific protease inhibitors (in words)” value (clipsin [1]; enzymography, 1 mM EDTA present) was “Lack of complete inhibition”.

B1: α-1-antichymotrypsin (protein, UniProt P01011 24-423, looked up)
Alpha-1-antichymotrypsin: HPNSPLDEENLTQENQDRGTHVDLGLASANVDFAFSLYKQLVLKAPDKNVIFSPLSISTALAFLSLGAHNTTLTEILKGLKFNLTETSEAEIHQSFQHLLRTLNQSSDELQLSMGNAMFVKEQLSLLDRFTEDAKRLYGSEAFATDFQDSAAAKKLINDYVKNGTRGKITDLIKDLDSQTMMVLVNYIFFKAKWEMPFDPQDTHQSRFYLSKKKWVMVPMMSLHHLTIPYFRDEELSCTVVELKYTGNASALFILPDQDKMEEVEAMLLPETLKRWRDSLEFREIGELYLPKFSISRDYNLNDILLQLGIEEAFTSKADLSGITGARNLAVSQVVHKAVLDVFEEGTEASAATAVKITLLSALVETRTIVRFNRPFLMIIVPTDTQNIFFMSKVTNPKQA
For B1, the “kassoc reported for α-1-AChy binding to bovine chymotrypsin” value (bovine chymotrypsin [8]) is given as 60000 M⁻¹ s⁻¹, the “kassoc reported for α-1-AChy binding to human cathepsin G” value (human cathepsin G) is given as 5.1e+07 M⁻¹ s⁻¹ and the “kassoc, association rate constant of α-1-AChy with clipsin” value (clipsin [9]) is given as 2.9e+06 M⁻¹ s⁻¹. For the same molecule, the “α-1-AChy concentration producing rapid inhibition of clipsin activity” value (clipsin [10]) was no less than 3.5 nM, the “α-1-AChy necessary to inhibit 100% clipsin activity (titration point)” value (clipsin [10]; titration curve at 120 min preincubation) was 1.4 nM and the “Inhibition of clipsin activity in vitro (in words)” value (clipsin [2]; pilot experiments, […]) was “effective inhibitor”.

From US5252463A, “Clipsin, a chymotrypsin-like protease and method of using same” (The Du Pont Merck Pharmaceutical Company, priority 1990, dated 1993)
